Read-outs that look alike come from different tables or passages of the source.
Assays:
[1] = tested on: Tetraselmis suecica; conditions: for survival after six days of regrowth/culture: 1 hour exposure to 100 g/L Mg(OH)2, 200 g/L NaOH or 100 g/L Ca(OH)2, dilution to 10 mg/L, 6 days; for surviving cells immediately after dilution: 1 hour exposure to 200 g/L NaOH or 100 g/L Ca(OH)2, then dilution to 10 mg/L
[2] = tested on: Tetraselmis suecica cultures; conditions: hydroxide additions equivalent to 1 and 10 mg/L of Mg(OH)2, 6-day period
[3] = tested on: Tisbe battaglial; conditions: chronic, 7 days, n = 1; Mg(OH)2 mixed as paste into local seawater
[4] = tested on: aquatic organisms
[5] = tested on: Skeletonema pseudocastatum
[6] = Sinking rate of Mg(OH)2 in seawater; format: physicochemical
[7] = tested on: Tisbe battaglial; conditions: acute, 48 h, n = 1; Mg(OH)2 mixed as paste into local seawater
[8] = tested on: Danio rerio; conditions: acute, 96 h, n = 1; Mg(OH)2 paste

| Compound | survival after six days of regrowth/culture [1] | surviving cells immediately after dilution [1] | ecotoxicity (growth inhibition) [2] | Lowest observed effect concentration (LOEC) [3] [mg/L] | mortality compared to the control water ([1]; less than 10 hours of exposure to 100 g/L prior to dilution to 10 mg/L, survival six days after) | lowest tested concentration showing some toxicity effect on aquatic organisms ([4]; all standard test organisms) [mg/L] | concentration at which no toxicity effect was observed ([4]; any of the standard test organisms) [ng/mL] | pH of solution in seawater (0.05 g/L Mg(OH)2, after 115 minutes mixing (300 rpm), still increasing) | mixing time to full dissolution of particles (concentrations below ~10 mg/L, 60 m deep seawater pH 7.9-8.0, approx. 22 °C, 300 rpm) | maximum pH achieved (seawater, depends on Mg(OH)2 concentration) | dosage showing no negative impact ([5]; standardized ecotoxicity work) [mg/L] | dosages showing negative impact ([5]; standardized ecotoxicity work) [mg/L] | Lowest observed effect concentration (LOEC) ([5]; sub-chronic, 72 h, n = 2, Mg(OH)2 mixed as paste into local seawater) [mg/L] | sinking rate ([6]; added as powder, visible particles (>100 μm)) | particle size distribution ([6]; added to seawater as paste) | sinking rate ([6]; small particles of about 10 micron, based on 4 cm sinking within 10 minutes, LISST instrument) [m/day] | Lowest observed effect concentration (LOEC) [7] [mg/L] | Lowest observed effect concentration (LOEC) [8] [mg/L] |
| --- | --- | --- | --- | --- | --- | --- | --- | --- | --- | --- | --- | --- | --- | --- | --- | --- | --- | --- |
| sodium hydroxide [NaOH] | no surviving organisms | no surviving cells |  |  |  |  |  |  |  |  |  |  |  |  |  |  |  |  |
| [Ca+2].[OH-].[OH-] [Ca(OH)2, calcium hydroxide] | very few living cells | no surviving cells | not ecotoxic |  |  |  |  |  |  |  |  |  |  |  |  |  |  |  |
| [Mg+2].[OH-].[OH-] [Mg(OH)2, magnesium hydroxide] | no mortality |  | not ecotoxic | >100 | no mortality | 50 | 25000 | 9.04 | approximately 3 hours | ~9.5 | 25 | ≥ 50 | 50 | 0.8-6 km/day | 5-60 μm | ~6 | 100 | >100 |

From patent publication US20250303359A1, “COMPOUNDS AND METHODS FOR SAFE MITIGATION OF OCEAN ACIDIFICATION AND CAPTURE OF ATMOSPHERIC CARBON DIOXIDE” (Negative Emissions Materials, Inc., priority 2022, published 2025)
